{"source": "patent US20240360159A1", "about": "“NOVEL APPLICATIONS FOR OXAZABOROLIDINES AND NEW METHODS OF MANUFACTURE THEREOF” (Pathway Intermediates Limited, priority 2021, published 2024)", "key": {"[1]": {"tested_on": "broiler (Ross 308; mixed sex)", "test": "Growth performance in broilers, feed additives vs ampicillin (Example 5)", "type": "in vivo", "settings": "for ADFI / ADG / BW / FCR / Mortality / Survivability: 0.1% in feed", "experimental": "The pure oxazaborolidines prepared by the method of Example 1 was investigated to assess its potential as a growth promotor in poultry.\n(§1) 1200 birds, 1-day old broiler (Ross 308; mixed sex) were treated over 32 days. 4 dietary groups were assessed with 6 replicates per diet; 50 birds per pen. The four Dietary groups consisted of (1) a control basal diet and (2) feed supplemented with a feed additive according to an embodiment of the present invention (0.1% 2-butyl-3,4 dimethyl-5-phenyl 1,3,2-oxazaborolidine-compound 2), (3) feed supplemented with a feed additive according to another embodiment of the present invention (0.1% 3,4-dimethyl-2-5-diphenyl-1,3,2-oxazaborolidine-compound 1) and (4) feed supplemented with the known antibiotic, ampicillin (0.1%).\n(§2) The feeding programme followed a typical feeding program on a farm (3 phases: starter; grower; finisher) with the feed additives added to the basal diet with top dressing.\n(§3) The following measurements were taken:\nGrowth Performance: Body weight (BW); Weight gain (Average Daily Gain—ADG); Feed intake (Average Daily Feed Intake—ADFI); FCR (food conversion ratio—feed input divided by feed output); Mortality Production Index."}, "cecal microbiome": {"tested_on": "cecal microbiome", "test": "Cecal bacterial microbiome α-diversity by 16S sequencing (Example 5)", "type": "in vivo, broiler chickens", "settings": "first week; genus level; compared to the basal control; p=0.0184 (Compound 1) and 0.0393 (Compound 2), two-way ANOVA; 0.1% in diet", "experimental": "as §1\nMicrobiome: Cecal samples were harvested at three time points (week 1, week 3 and week 5). Six replicates were harvested per dietary group. Total DNA was purified and the bacterial microbiome was analysed by 16S sequencing.\nPlots display the smallest and largest value as the whiskers, with the box comprising the 25th percentile, median and 75th percentile."}, "[2]": {"tested_on": "broiler (Ross 308; mixed sex)", "test": "Growth performance in broilers, feed additive (Example 4)", "type": "in vivo", "settings": "0.055% in feed", "experimental": "The pure oxazaborolidine compound 5 (R)-(+)-2-Methyl-CBS-oxazaborolidine prepared according to Example 1 was investigated to assess its potential as a growth promoter in poultry.\n240 birds, 1-day old broiler (Ross 308; mixed sex) were treated over 32 days. Two dietary groups were given six replicates per diet; […]. The two treatments consisted of (1) a control basal diet and (2) feed supplemented with a feed additive according to an embodiment of the present invention (0.055% (R)-(+)-2-Methyl-CBS-oxazaborolidine).\nas §2, §3\nGrowth Performance: Body weight (BW); Weight gain (Average Daily Gain-ADG); Feed intake (Average Daily Feed Intake—ADFI); FCR (food conversion ratio-feed input divided by feed output)."}, "[3]": {"settings": "0.1% in diet, compared to the basal diet Control"}}, "note": "Marks after values point to notes of the source that are not given here."}
{"compound": "CC1(C)S[C@@H]2[C@H](NC(=O)[C@H](N)c3ccccc3)C(=O)N2[C@H]1C(=O)O", "note": "[ATB, ampicillin, reference compound]", "values": [{"measurement": "ADFI", "setting": "[1]; Grower (8-21 d)", "value": "85.9^A g"}, {"measurement": "ADG", "setting": "[1]; Grower (8-21 d)", "value": "62.6^A g"}, {"measurement": "BW", "setting": "[1]; Grower (8-21 d)", "value": "1074.6^A g"}, {"measurement": "FCR", "setting": "[1]; Grower (8-21 d)", "value": "1.42^bc"}, {"measurement": "Mortality", "setting": "[1]; Grower (8-21 d)", "value": 1.53, "unit": "%"}, {"measurement": "ADFI", "setting": "[1]; Grower (22-32 d)", "value": "155.9^A g"}, {"measurement": "ADG", "setting": "[1]; Grower (22-32 d)", "value": "83.0^A g"}, {"measurement": "BW", "setting": "[1]; Grower (22-32 d)", "value": "1987.4^A g"}, {"measurement": "FCR", "setting": "[1]; Grower (22-32 d)", "value": 2.06}, {"measurement": "Mortality", "setting": "[1]; Grower (22-32 d)", "value": 0.00, "unit": "%"}, {"measurement": "ADFI", "setting": "[1]; Overall (1-32 d)", "value": "96.0^A g"}, {"measurement": "ADG", "setting": "[1]; Overall (1-32 d)", "value": "60.7^A g"}, {"measurement": "FCR", "setting": "[1]; Overall (1-32 d)", "value": "1.66^y"}, {"measurement": "Survivability", "setting": "[1]; Overall (1-32 d)", "value": 95.4, "unit": "%"}, {"measurement": "ADFI", "setting": "[1]; Starter (1-7 d)", "value": "21.9^A g"}, {"measurement": "ADG", "setting": "[1]; Starter (1-7 d)", "value": "22.0^A g"}, {"measurement": "BW", "setting": "[1]; Starter (1-7 d)", "value": "199.1^A g"}, {"measurement": "FCR", "setting": "[1]; Starter (1-7 d)", "value": "0.99^C"}, {"measurement": "Mortality", "setting": "[1]; Starter (1-7 d)", "value": 2.33, "unit": "%"}]}
{"compound": "C[C@H]1[C@@H](c2ccccc2)OB(c2ccccc2)N1C", "note": "[Compound 1, 3,4-dimethyl-2-5-diphenyl-1,3,2-oxazaborolidine]", "values": [{"measurement": "decrease of overall FCR", "setting": "[1]; [3]", "value": 0.59, "unit": "%"}, {"measurement": "ADFI", "setting": "[1]; Grower (8-21 d)", "value": "72.7^C g"}, {"measurement": "ADG", "setting": "[1]; Grower (8-21 d)", "value": "51.5^C g"}, {"measurement": "BW", "setting": "[1]; Grower (8-21 d)", "value": "892.8^C g"}, {"measurement": "FCR", "setting": "[1]; Grower (8-21 d)", "value": "1.46^ab"}, {"measurement": "Mortality", "setting": "[1]; Grower (8-21 d)", "value": 0.37, "unit": "%"}, {"measurement": "ADFI", "setting": "[1]; Grower (22-32 d)", "value": "133.5^C g"}, {"measurement": "ADG", "setting": "[1]; Grower (22-32 d)", "value": "70.6^C g"}, {"measurement": "BW", "setting": "[1]; Grower (22-32 d)", "value": "1669.4^C g"}, {"measurement": "FCR", "setting": "[1]; Grower (22-32 d)", "value": 2.08}, {"measurement": "Mortality", "setting": "[1]; Grower (22-32 d)", "value": 0.40, "unit": "%"}, {"measurement": "ADFI", "setting": "[1]; Overall (1-32 d)", "value": "82.0^C g"}, {"measurement": "ADG", "setting": "[1]; Overall (1-32 d)", "value": "50.8^C g"}, {"measurement": "FCR", "setting": "[1]; Overall (1-32 d)", "value": "1.69^x"}, {"measurement": "Survivability", "setting": "[1]; Overall (1-32 d)", "value": 97.9, "unit": "%"}, {"measurement": "ADFI", "setting": "[1]; Starter (1-7 d)", "value": "19.5^B g"}, {"measurement": "ADG", "setting": "[1]; Starter (1-7 d)", "value": "18.2^C g"}, {"measurement": "BW", "setting": "[1]; Starter (1-7 d)", "value": "172.4^C g"}, {"measurement": "FCR", "setting": "[1]; Starter (1-7 d)", "value": "1.07^A"}, {"measurement": "Mortality", "setting": "[1]; Starter (1-7 d)", "value": 1.00, "unit": "%"}, {"measurement": "α-diversity of the cecal microbiome", "setting": "cecal microbiome", "value": "significantly increased"}]}
{"compound": "CCCCB1OC(c2ccccc2)C(C)N1C", "note": "(stereo not drawn) [Compound 2, 2-butyl-3,4 dimethyl-5-phenyl 1,3,2-oxazaborolidine]", "values": [{"measurement": "decrease of overall FCR", "setting": "[1]; [3]", "value": 1.76, "unit": "%"}, {"measurement": "increase of overall ADFI", "setting": "[1]; [3]", "value": 4.6, "unit": "%"}, {"measurement": "increase of overall ADG", "setting": "[1]; [3]", "value": 5.7, "unit": "%"}, {"measurement": "ADFI", "setting": "[1]; Grower (8-21 d)", "value": "80.7^B g"}, {"measurement": "ADG", "setting": "[1]; Grower (8-21 d)", "value": "58.6^B g"}, {"measurement": "BW", "setting": "[1]; Grower (8-21 d)", "value": "1002.2^B g"}, {"measurement": "FCR", "setting": "[1]; Grower (8-21 d)", "value": "1.42^c"}, {"measurement": "Mortality", "setting": "[1]; Grower (8-21 d)", "value": 1.12, "unit": "%"}, {"measurement": "ADFI", "setting": "[1]; Grower (22-32 d)", "value": "144.0^B g"}, {"measurement": "ADG", "setting": "[1]; Grower (22-32 d)", "value": "76.1^B g"}, {"measurement": "BW", "setting": "[1]; Grower (22-32 d)", "value": "1839.0^B g"}, {"measurement": "FCR", "setting": "[1]; Grower (22-32 d)", "value": 2.09}, {"measurement": "Mortality", "setting": "[1]; Grower (22-32 d)", "value": 0.42, "unit": "%"}, {"measurement": "ADFI", "setting": "[1]; Overall (1-32 d)", "value": "89.3^B g"}, {"measurement": "ADG", "setting": "[1]; Overall (1-32 d)", "value": "56.1^B g"}, {"measurement": "FCR", "setting": "[1]; Overall (1-32 d)", "value": "1.67^xy"}, {"measurement": "Survivability", "setting": "[1]; Overall (1-32 d)", "value": 96.7, "unit": "%"}, {"measurement": "ADFI", "setting": "[1]; Starter (1-7 d)", "value": "20.4^B g"}, {"measurement": "ADG", "setting": "[1]; Starter (1-7 d)", "value": "19.6^B g"}, {"measurement": "BW", "setting": "[1]; Starter (1-7 d)", "value": "182.0^B g"}, {"measurement": "FCR", "setting": "[1]; Starter (1-7 d)", "value": "1.04^B"}, {"measurement": "Mortality", "setting": "[1]; Starter (1-7 d)", "value": 1.33, "unit": "%"}, {"measurement": "increase in body weight gain", "setting": "[1]; finisher phase, 0.1% in diet, compared to the basal diet Control", "value": 5.7, "unit": "%"}, {"measurement": "increase in body weight gain", "setting": "[1]; grower phase, 0.1% in diet, compared to the basal diet Control", "value": 8.7, "unit": "%"}, {"measurement": "increase in body weight gain", "setting": "[1]; starter phase, 0.1% in diet, compared to the basal diet Control", "value": 4.5, "unit": "%"}, {"measurement": "α-diversity of the cecal microbiome", "setting": "cecal microbiome", "value": "significantly increased"}]}
{"compound": "CB1OC(c2ccccc2)(c2ccccc2)[C@H]2CCCN12", "note": "[Compound 5, (R)-(+)-2-Methyl-CBS-oxazaborolidine]", "values": [{"measurement": "ADFI", "setting": "[2]; Finisher (22-32 d)", "value": 147.8, "unit": "g"}, {"measurement": "ADG", "setting": "[2]; Finisher (22-32 d)", "value": 90.1, "unit": "g"}, {"measurement": "BW", "setting": "[2]; Finisher (22-32 d)", "value": 2078.6, "unit": "g"}, {"measurement": "FCR", "setting": "[2]; Finisher (22-32 d)", "value": 1.64}, {"measurement": "ADFI", "setting": "[2]; Grower (8-21 d)", "value": 68.3, "unit": "g"}, {"measurement": "ADG", "setting": "[2]; Grower (8-21 d)", "value": 48.3, "unit": "g"}, {"measurement": "BW", "setting": "[2]; Grower (8-21 d)", "value": 816.9, "unit": "g"}, {"measurement": "FCR", "setting": "[2]; Grower (8-21 d)", "value": 1.41}, {"measurement": "ADFI", "setting": "[2]; Overall (1-32 d)", "value": 89.5, "unit": "g"}, {"measurement": "ADG", "setting": "[2]; Overall (1-32 d)", "value": 58.2, "unit": "g"}, {"measurement": "FCR", "setting": "[2]; Overall (1-32 d)", "value": 1.52}, {"measurement": "ADFI", "setting": "[2]; Starter (1-7 d)", "value": 15.5, "unit": "g"}, {"measurement": "ADG", "setting": "[2]; Starter (1-7 d)", "value": 14.2, "unit": "g"}, {"measurement": "BW", "setting": "[2]; Starter (1-7 d)", "value": 140.7, "unit": "g"}, {"measurement": "FCR", "setting": "[2]; Starter (1-7 d)", "value": 1.08}]}
